Legend:
[1] = human, serum, 4383 h
[2] = human, serum
[3] = human
[4] = Highest frequency of acute liver toxicity observed during clinical trials, expressed as a percentage. [column '% AIGUE' in source]; conditions: human
[5] = Proposed mechanism(s) of liver damage. [column 'MEC' in source]; conditions: human
[6] = Highest frequency of moderate liver toxicity observed during clinical trials, expressed as a percentage. [column '% BIOL' in source]; conditions: human
[7] = human; remark: listed apart in the source
[8] = human, serum; remark: listed apart in the source
[9] = human; remark: listed apart in the source
[10] = human; remark: listed apart in the source
[11] = human; remark: listed apart in the source
[12] = human; remark: listed apart in the source
[13] = human; remark: listed apart in the source
[14] = human; remark: listed apart in the source
[15] = human; remark: listed apart in the source
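Throughout, for Hepatotoxicity (association with vascular disease): count of indexed literature references reporting vascular liver injury in humans, e.g. peliosis hepatitis, hepatic veno-occlusive disease or Budd-Chiari syndrome.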
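Throughout, for Hepatotoxicity (benign tumour): value is a count of indexed literature references citing a benign tumour confirmed by histopathology.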
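Throughout, for Hepatotoxicity (choleostasis): human cholestatic liver injury, shown by histopathology or by peak ALT or AST elevation over alkaline phosphatase ratio below 2, value counts indexed literature reports.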
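Throughout, for Hepatotoxicity (chronic liver disease): chronic liver injury confirmed by histopathology or persistently raised serum aminotransferase activity beyond 6 months, value given as the count of indexed literature references.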
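Throughout, for Hepatotoxicity (cirrhosis): value is a count of indexed literature references reporting cirrhosis confirmed by histopathology.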
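Throughout, for Hepatotoxicity (cytolytic): human cytolytic liver injury, shown by histopathology or by a ratio above 5 of peak ALT or AST elevation to alkaline phosphatase elevation, value counts indexed references.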
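Throughout, for Hepatotoxicity (granulomatous hepatitis): value is a count of indexed literature references reporting granulomatous liver disease confirmed by histopathology.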
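Throughout, for Hepatotoxicity (malignant tumour): malignant tumour confirmed by histopathology, value gives the count of indexed literature references reporting it.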
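Throughout, for Hepatotoxicity (severe hepatitis): human clinical data: severe hepatitis, meaning potentially life-threatening liver failure or clinically observed cases, the value counts how many indexed literature references report it.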
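Throughout, for Hepatotoxicity (steatosis): steatosis confirmed by histopathology, value is the count of indexed references.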

SMILES	Hepatotoxicity (chronic liver disease) [1]	Hepatotoxicity (acute) [2]	Hepatotoxicity (malignant tumour) [3]	Hepatotoxicity (acute) [4] [%]	Hepatotoxicity (mechanism) [5]	Hepatotoxicity (moderate) [6] [%]	Hepatotoxicity (granulomatous hepatitis) [7]	Hepatotoxicity (moderate) [8]	Hepatotoxicity (cytolytic) [9]	Hepatotoxicity (steatosis) [10]	Hepatotoxicity (choleostasis) [11]	Hepatotoxicity (benign tumour) [12]	Hepatotoxicity (cirrhosis) [13]	Hepatotoxicity (severe hepatitis) [14]	Hepatotoxicity (association with vascular disease) [15]	also measured
O=C(NO)c1ccc(O)c(O)c1	0	1	0	0	Dose-dependant	0	0	1	0	0	0	0	0	0	0	
COc1ccccc1Oc1c(NS(=O)(=O)c2ccc(C(C)(C)C)cc2)nc(-c2ncccn2)nc1OCCO [BOSENTAN]	0	5	0	5.3	Dose-dependant	15	0	12	4	0	1	0	0	0	0	
CCCCNC(=N)NC(=N)N [BUFORMIN]	0	1	0					0		0		0	0		0	Hepatotoxicity (acute) ([4]; Liver): 0%; Hepatotoxicity (mechanism) ([5]; Liver): Allergic; Hepatotoxicity (moderate) ([6]; Liver): 0%; Hepatotoxicity (granulomatous hepatitis) ([7]; Liver): 0; Hepatotoxicity (cytolytic) ([9]; Liver): 0; Hepatotoxicity (choleostasis) ([11]; Liver): 0; Hepatotoxicity (severe hepatitis) ([14]; Liver): 0
CC(C)(O/N=C(\C(=O)N[C@@H]1C(=O)N2C(C(=O)[O-])=C(C[n+]3ccccc3)CS[C@H]12)c1csc(N)n1)C(=O)O [CEFTAZIDIME]	0	2	0	2.5	Dose-dependant	35.7	0	77	0	0	2	0	0	0	0	
COc1nc(C)ccc1CN1CC1C#N (stereo not given) [CIAMEXON]	0	0	0	0	Dose-dependant	14	0	2	0	0	0	0	0	0	0	
CCN(CC)CC[n+]1ccc2c(C)c3[nH]c4ccc(O)cc4c3c(C)c2c1.[Cl-] [DATELLIPTIUM CHLORIDE]	0	2	0	7.1	Dose-dependant	66.7	0	2	2	0	0	0	0	0	0	
O=C[C@H](O)[C@@H](O)[C@H](O)[C@H](O)CO[C@H]1O[C@H](CO[C@H]2O[C@H](CO)[C@@H](O)[C@H](O)[C@H]2O)[C@@H](O)[C@H](O)[C@H]1O [DEXTRAN]	0	0	0	0	Dose-dependant	43.7	0	2	0	0	0	0	0	0	0	
CO[C@@H]1[C@@H](N)[C@@H](O[C@H]2[C@H](Oc3cccc4c(O)c5c(=O)oc6ccc(C)c7c(=O)oc(c34)c5c67)O[C@H](C)[C@H](O)[C@]2(C)O)O[C@H](C)[C@@H]1O [ELSAMITRUCIN]	0	2	0	1.6	Dose-dependant	13	0	4	0	0	0	0	0	1	0	
C[C@@](O)(/C=C/[C@H]1CC=CC(=O)O1)[C@@H](C[C@@H](O)\C=C/C=C\C=C\CO)OP(=O)(O)O [FOSTRIECIN]	0	0	0	0	Dose-dependant	5	0	1	0	0	0	0	0	0	0	
CCCCCCCCCCCCCCCCSCC(COC)COP(=O)([O-])OCC[N+](C)(C)C (stereo not given) [ILMOFOSINE]	0	0	0	0	Dose-dependant	71.4	0	5	0	0	0	0	0	0	0	
Cc1cnc(NC(=O)C2=C(O)c3ccccc3S(=O)(=O)N2C)s1 [MELOXICAM]	0	1	0		Dose-dependant		0	6	0	0	0	0	0		0	Hepatotoxicity (acute) ([4]; Liver): 0%; Hepatotoxicity (moderate) ([6]; Liver): 11.5%; Hepatotoxicity (severe hepatitis) ([14]; Liver): 0

From ChEMBL document CHEMBL3137667, “[Drug-induced liver injury; fourteenth updated edition of the bibliographic database of liver injuries and related drugs]” (Gastroenterol Clin Biol, 2004)
